{"source": "ChEMBL document CHEMBL4304783", "about": "“Discovery of a Novel Selective Dual Peroxisome Proliferator-Activated Receptor α/δ Agonist for the Treatment of Primary Biliary Cirrhosis” (ACS Med Chem Lett, 2019)", "key": {"[1]": {"molecular_target": "Voltage-gated inwardly rectifying potassium channel KCNH2 (Homo sapiens, UniProt Q12809)", "sequence (Q12809 whole entry)": "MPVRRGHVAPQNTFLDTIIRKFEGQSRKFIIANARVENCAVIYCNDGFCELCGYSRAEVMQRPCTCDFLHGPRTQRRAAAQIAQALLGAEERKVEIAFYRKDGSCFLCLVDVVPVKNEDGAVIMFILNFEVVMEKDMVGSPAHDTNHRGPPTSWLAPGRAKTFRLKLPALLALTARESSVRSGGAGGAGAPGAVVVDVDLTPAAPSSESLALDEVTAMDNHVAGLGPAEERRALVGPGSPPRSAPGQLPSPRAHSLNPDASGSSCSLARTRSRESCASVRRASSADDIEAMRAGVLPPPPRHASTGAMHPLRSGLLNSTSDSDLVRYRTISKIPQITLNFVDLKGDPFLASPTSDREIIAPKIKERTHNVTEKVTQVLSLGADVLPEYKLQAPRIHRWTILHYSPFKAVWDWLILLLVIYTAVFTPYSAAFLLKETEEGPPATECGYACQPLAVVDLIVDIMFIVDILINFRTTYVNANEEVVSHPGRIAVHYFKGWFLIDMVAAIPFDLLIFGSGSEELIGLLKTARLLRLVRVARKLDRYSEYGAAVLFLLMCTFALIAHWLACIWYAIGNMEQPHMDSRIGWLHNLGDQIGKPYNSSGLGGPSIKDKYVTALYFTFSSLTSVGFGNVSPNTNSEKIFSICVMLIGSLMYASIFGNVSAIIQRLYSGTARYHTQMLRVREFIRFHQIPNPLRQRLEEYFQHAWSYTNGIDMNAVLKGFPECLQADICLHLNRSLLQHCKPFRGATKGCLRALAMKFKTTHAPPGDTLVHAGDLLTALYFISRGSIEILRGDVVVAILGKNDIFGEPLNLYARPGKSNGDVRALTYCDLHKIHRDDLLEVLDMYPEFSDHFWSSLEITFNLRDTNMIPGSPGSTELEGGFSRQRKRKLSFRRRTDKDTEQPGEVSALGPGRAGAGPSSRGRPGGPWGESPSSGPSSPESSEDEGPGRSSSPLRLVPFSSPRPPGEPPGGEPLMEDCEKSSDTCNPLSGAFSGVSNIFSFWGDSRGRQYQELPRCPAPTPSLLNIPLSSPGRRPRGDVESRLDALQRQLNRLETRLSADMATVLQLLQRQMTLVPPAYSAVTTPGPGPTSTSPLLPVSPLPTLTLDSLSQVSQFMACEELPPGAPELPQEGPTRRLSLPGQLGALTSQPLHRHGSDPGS", "assay": "Inhibition of human ERG expressed in CHO-K1 cells by whole-cell patch clamp assay", "type": "cell-based"}, "[2]": {"assay": "Apparent permeability across basolateral to apical side in human Caco2 cells at 2 uM incubated for 120 mins by LC-MS/MS analysis", "type": "ADME, cell-based", "conditions": "Caco-2"}, "[3]": {"assay": "Stability in human plasma assessed as remaining compound incubated for 2 hrs", "type": "ADME, cell-free", "conditions": "read-out: Stability"}, "[4]": {"molecular_target": "T1, Peroxisome proliferator-activated receptor delta (Homo sapiens) (UniProt Q03181)", "T1 sequence (whole entry)": "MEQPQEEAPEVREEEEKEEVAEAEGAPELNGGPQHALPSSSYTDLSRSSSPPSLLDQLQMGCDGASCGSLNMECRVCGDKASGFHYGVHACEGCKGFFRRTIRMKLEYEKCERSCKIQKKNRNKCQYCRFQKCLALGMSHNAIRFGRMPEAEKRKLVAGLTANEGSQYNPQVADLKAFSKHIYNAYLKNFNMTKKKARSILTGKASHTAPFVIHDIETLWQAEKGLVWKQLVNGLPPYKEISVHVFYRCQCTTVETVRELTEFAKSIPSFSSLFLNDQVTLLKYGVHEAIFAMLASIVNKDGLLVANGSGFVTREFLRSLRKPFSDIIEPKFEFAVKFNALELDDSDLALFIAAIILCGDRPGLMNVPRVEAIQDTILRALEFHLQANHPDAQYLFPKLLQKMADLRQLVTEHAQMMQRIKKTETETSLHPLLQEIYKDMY", "assay": "Agonist activity at PPARbeta (unknown origin) incubated for 3 to 16 hrs by pathhunter nuclear hormone receptor assay relative to L-165,041"}, "[5]": {"assay": "Oral bioavailability in Sprague-Dawley rat at 10 mg/kg measured upto 24 hrs by LC-MS/MS analysis", "conditions": "in vivo"}, "[6]": {"assay": "Protein binding in rat plasma at 2 uM incubated for 4 hrs by LC-MS/MS analysis", "type": "ADME, cell-free"}, "[7]": {"assay": "Tmax in C57BL/6J mouse at 10 mg/kg, po measured upto 24 hrs by LC-MS/MS analysis", "type": "ADME, organism-based", "conditions": "in vivo"}, "[8]": {"molecular_target": "T2, Peroxisome proliferator-activated receptor delta (Homo sapiens, UniProt Q03181)", "T2 sequence (Q03181 whole entry)": "T1 sequence (whole entry)", "assay": "Agonist activity at PPARbeta (unknown origin) incubated for 3 to 16 hrs by pathhunter nuclear hormone receptor assay"}, "[9]": {"molecular_target": "T3, Peroxisome proliferator-activated receptor gamma (Homo sapiens) (UniProt P37231)", "T3 sequence (whole entry)": "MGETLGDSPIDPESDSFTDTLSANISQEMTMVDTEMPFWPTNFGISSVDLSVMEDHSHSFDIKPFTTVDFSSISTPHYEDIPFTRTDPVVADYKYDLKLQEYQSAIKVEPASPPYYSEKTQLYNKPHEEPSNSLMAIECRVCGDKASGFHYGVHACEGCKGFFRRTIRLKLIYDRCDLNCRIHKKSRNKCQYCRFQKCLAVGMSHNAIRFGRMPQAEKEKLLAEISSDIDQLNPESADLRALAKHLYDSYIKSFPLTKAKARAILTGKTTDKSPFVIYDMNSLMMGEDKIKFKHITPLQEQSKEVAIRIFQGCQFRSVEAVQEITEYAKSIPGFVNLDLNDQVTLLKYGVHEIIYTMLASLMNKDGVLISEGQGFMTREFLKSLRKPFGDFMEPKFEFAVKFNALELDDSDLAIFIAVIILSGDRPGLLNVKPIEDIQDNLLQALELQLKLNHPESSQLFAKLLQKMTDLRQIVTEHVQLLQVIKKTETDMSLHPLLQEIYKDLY", "assay": "Agonist activity at PPARgamma (unknown origin) incubated for 3 to 16 hrs by pathhunter nuclear hormone receptor assay relative to Troglitazone"}, "[10]": {"assay": "Volume of distribution at steady state in Sprague-Dawley rat at 1 mg/kg, iv measured upto 24 hrs by LC-MS/MS analysis", "type": "ADME, organism-based", "conditions": "in vivo, read-out: Vdss"}, "[11]": {"assay": "Cmax in Sprague-Dawley rat at 10 mg/kg, po measured upto 24 hrs by LC-MS/MS analysis", "type": "ADME, organism-based", "design": "dose 10 mg/kg, route oral", "conditions": "in vivo"}, "Bile acid receptor": {"molecular_target": "T4, Bile acid receptor (Homo sapiens, UniProt Q96RI1)", "T4 sequence (Q96RI1 whole entry)": "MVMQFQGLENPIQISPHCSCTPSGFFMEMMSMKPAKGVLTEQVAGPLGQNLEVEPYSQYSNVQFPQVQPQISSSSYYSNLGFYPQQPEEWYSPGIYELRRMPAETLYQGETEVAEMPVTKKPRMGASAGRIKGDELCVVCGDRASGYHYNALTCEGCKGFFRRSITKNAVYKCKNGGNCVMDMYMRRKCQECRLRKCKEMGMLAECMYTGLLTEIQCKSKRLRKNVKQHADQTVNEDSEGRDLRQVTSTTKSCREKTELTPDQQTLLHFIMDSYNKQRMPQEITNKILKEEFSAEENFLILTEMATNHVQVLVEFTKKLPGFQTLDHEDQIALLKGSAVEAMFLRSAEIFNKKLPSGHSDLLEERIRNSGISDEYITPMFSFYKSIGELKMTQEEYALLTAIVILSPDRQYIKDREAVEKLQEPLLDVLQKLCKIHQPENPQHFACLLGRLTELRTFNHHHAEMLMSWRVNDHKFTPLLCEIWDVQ", "assay": "Binding affinity to human recombinant GST-tagged FXR LBD (193-472 residues) expressed in baculovirus infected insect cells incubated for 1 hr by luminometry"}, "[12]": {"assay": "AUC (0 to last) in C57BL/6J mouse at 10 mg/kg, po measured upto 24 hrs by LC-MS/MS analysis", "type": "ADME, organism-based", "design": "dose 10 mg/kg, route oral, time 0 - last", "conditions": "in vivo"}, "Cytochrome P450 3A4": {"molecular_target": "Cytochrome P450 3A4 (Homo sapiens, UniProt P08684)", "sequence (P08684 whole entry)": "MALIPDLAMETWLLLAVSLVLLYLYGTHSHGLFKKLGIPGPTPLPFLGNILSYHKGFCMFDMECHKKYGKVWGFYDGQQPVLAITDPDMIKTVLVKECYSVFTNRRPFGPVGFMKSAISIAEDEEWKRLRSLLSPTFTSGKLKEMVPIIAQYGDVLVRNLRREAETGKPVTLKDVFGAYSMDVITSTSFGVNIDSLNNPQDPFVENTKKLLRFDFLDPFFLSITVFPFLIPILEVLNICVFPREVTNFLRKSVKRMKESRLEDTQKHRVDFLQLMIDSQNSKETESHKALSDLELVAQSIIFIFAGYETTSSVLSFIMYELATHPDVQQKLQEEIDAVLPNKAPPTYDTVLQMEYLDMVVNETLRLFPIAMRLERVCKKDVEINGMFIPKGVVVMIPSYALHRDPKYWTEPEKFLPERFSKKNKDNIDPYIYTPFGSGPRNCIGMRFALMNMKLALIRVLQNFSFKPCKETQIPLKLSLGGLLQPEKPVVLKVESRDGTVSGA", "assay": "Inhibition of CYP3A4 in human liver microsomes using midazolam as substrate incubated for 10 mins followed by substrate addition further incubated for 10 mins by LC-MS/MS analysis", "type": "ADME"}, "[13]": {"assay": "Stability in rat plasma assessed as remaining compound incubated for 2 hrs", "type": "ADME, cell-free", "conditions": "read-out: Stability"}, "[14]": {"molecular_target": "T5, Peroxisome proliferator-activated receptor alpha (Homo sapiens) (UniProt Q07869)", "T5 sequence (whole entry)": "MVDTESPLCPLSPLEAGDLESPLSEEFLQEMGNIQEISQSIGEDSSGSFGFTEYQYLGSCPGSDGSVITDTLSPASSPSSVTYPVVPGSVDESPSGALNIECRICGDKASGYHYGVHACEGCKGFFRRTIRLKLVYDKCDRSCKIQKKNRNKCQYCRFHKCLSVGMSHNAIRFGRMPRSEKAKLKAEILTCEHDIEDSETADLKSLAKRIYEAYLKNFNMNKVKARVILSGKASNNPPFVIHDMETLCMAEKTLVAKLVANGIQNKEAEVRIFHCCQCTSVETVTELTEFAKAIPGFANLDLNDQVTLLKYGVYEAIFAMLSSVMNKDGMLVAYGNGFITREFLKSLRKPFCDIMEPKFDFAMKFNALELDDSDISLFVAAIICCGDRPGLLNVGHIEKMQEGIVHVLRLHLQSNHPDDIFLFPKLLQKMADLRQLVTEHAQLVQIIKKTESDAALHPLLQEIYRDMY", "assay": "Agonist activity at PPARalpha (unknown origin) incubated for 3 to 16 hrs by pathhunter nuclear hormone receptor assay relative to GW7647", "design": "concentration or dose not given beside the values"}, "Cytochrome P450 2C19": {"molecular_target": "Cytochrome P450 2C19 (Homo sapiens, UniProt P33261)", "sequence (P33261 whole entry)": "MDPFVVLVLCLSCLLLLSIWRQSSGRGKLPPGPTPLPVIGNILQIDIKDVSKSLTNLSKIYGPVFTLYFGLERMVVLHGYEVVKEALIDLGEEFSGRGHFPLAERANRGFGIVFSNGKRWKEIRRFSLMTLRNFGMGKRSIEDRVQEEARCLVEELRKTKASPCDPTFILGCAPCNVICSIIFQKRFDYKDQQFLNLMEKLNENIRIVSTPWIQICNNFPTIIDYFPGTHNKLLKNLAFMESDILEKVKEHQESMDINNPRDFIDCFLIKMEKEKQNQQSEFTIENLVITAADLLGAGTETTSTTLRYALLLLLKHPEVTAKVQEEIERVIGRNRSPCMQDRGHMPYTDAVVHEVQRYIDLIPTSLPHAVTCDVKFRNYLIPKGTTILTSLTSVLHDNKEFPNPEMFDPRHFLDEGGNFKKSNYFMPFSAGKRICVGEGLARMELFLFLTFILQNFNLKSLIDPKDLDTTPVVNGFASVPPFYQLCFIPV", "assay": "Inhibition of CYP2C19 in human liver microsomes using S-mephenytoin as substrate incubated for 10 mins followed by substrate addition further incubated for 10 mins by LC-MS/MS analysis", "type": "ADME"}}, "data": [{"smiles": "Cc1cc(Cc2cc(-c3ccc(Br)cc3)on2)cc(C)c1OC(C)(C)C(=O)O", "values": [{"measurement": "IC50", "setting": "[1]", "value": "> 30", "unit": "µM"}, {"measurement": "Papp B→A at 2 h, 2 µM", "setting": "[2]", "value": 0.2, "unit": "×10⁻⁶ cm/s"}, {"measurement": "remaining at 2 h", "setting": "[3]", "value": 88, "unit": "%"}, {"measurement": "Activity", "setting": "[4]", "value": 79, "unit": "%"}, {"measurement": "bioavailability", "setting": "[5]", "value": 53.3, "unit": "%"}, {"measurement": "fraction unbound at 4 h, 2 µM", "setting": "[6]", "value": "< 0.001"}, {"measurement": "Tmax", "setting": "[7]", "value": 19.8, "unit": "min"}, {"measurement": "EC50", "setting": "[8]", "value": 0.005, "unit": "µM"}, {"measurement": "Activity", "setting": "[9]", "value": 110, "unit": "%"}, {"measurement": "Vd", "setting": "[10]", "value": 0.16, "unit": "L/kg"}, {"measurement": "Cmax", "setting": "[11]", "value": 65.3, "unit": "µM"}, {"measurement": "IC50", "setting": "Bile acid receptor", "value": "> 50", "unit": "µM"}, {"measurement": "AUC(0-t) at 24 h", "setting": "[12]", "value": 63.2, "unit": "µM·h"}, {"measurement": "IC50", "setting": "Cytochrome P450 3A4", "value": "> 50", "unit": "µM"}, {"measurement": "remaining at 2 h", "setting": "[13]", "value": 96, "unit": "%"}, {"measurement": "Activity", "setting": "[14]", "value": 92, "unit": "%"}, {"measurement": "IC50", "setting": "Cytochrome P450 2C19", "value": "> 50", "unit": "µM"}]}]}
